{"source": "patent US8628754B2", "about": "“Highly efficient delivery of a large therapeutic mass aerosol” (Civitas Therapeutics, Inc., priority 2000, dated 2014)", "key": {"[1]": {"experiment": "Geometric diameter by RODOS dry powder disperser / HELOS laser diffraction", "type": "physicochemical", "description": "The Applicants introduced the powders into and dispersed the powder through an orifice in the RODOS dry powder disperser at varying shear forces by manipulating the regulator pressure of the air stream used to break up the particles. The Applicants obtained the geometric size distribution from the HELOS laser diffractometer as the powder exited and recorded the median value. The data was summarized and plotted as the mass median geometric diameter (MMGD) against pressure.\nTo evaluate the deagglomeration properties of the three powders, Applicants introduced the powders into a RODOS dry powder disperser and varied the shear force in order to break up the particles by manipulating the regulator pressure of the air stream. Subsequently, following the manufacturer's instructions, Applicants obtained the geometric size distribution from the HELOS laser diffractometer and recorded the median value. The data was summarized and plotted as […] (MMGD) against pressure.\nParticles of the present invention were further characterized by the following techniques. The primary geometric diameter was measured using a RODOS dry powder disperser (Sympatec, Princeton, N.J.) in conjunction with a HELOS laser diffractometer (Sympatec). Powder was introduced into the RODOS inlet and aerosolized by shear forces generated by a compressed air stream regulated at 4 bar. The aerosol cloud was subsequently drawn into the measuring zone of the HELOS, where it scattered light from a laser beam and produced a Fraunhofer diffraction pattern used to infer the particle size distribution.\nGeometric diameter was determined using a laser diffraction technique (Alkermes SOP #MS-021-005). The equipment consists of a HELOS diffractometer and a RODOS disperser (Sympatec, Inc., Princeton, N.J.). The RODOS disperser applies a shear force to a sample of particles, controlled by the regulator pressure of the incoming compressed air. The dispersed particles travel through a laser beam where the resulting diffracted light pattern produced is collected by a series of detectors. […]"}, "Tap density": {"experiment": "Tap density", "type": "physicochemical", "description": "Tap density can be measured by using instruments known to those skilled in the art such as the Dual Platform Microprocessor Controlled Tap Density Tester (Vankel, N.C.). Tap density is a standard measure of the envelope mass density. Tap density can be determined using the method of USP Bulk Density and Tapped Density, United States Pharmacopia convention, Rockville, Md., 10th Supplement, 4950-4951, 1999. In another embodiment, the particles have a mass median geometric diameter (MMGD) greater than about 5 μm and preferably near to or greater than about 10 μm. In one embodiment, the particles have a MMGD greater than about 5 μm and ranging to about 30 μm. In another embodiment, the particles have a MMGD ranging from about 10 μm to about 30 μm."}, "[2]": {"experiment": "Aerodynamic diameter by AeroDisperser/Aerosizer (AeroBreather for emitted size)", "type": "physicochemical", "details": "AIR inhaler at 30 L/min, FIG. 2B", "description": "The primary aerodynamic diameter was measured using an AeroDisperser/Aerosizer (TSI Inc., Amherst, Mass.). The sample powder was aerosolized by an inlet air stream at 1 psi in the AeroDisperser and then accelerated to sonic velocity into the Aerosizer. The Aerosizer measures the time taken for each particle to pass between two fixed laser beams, which is dependent on the particle's inertia. The TOF (time of flight) measurements were subsequently converted into aerodynamic diameters using Stokes law.\nThe emitted aerodynamic diameter from the AIR inhaler was determined using the AeroBreather (TSI Inc., Amherst, Mass.) in conjunction with the Aerosizer (TSI, Inc.). The powder was aerosolized from the inhaler at 30 L/min into the AeroBreather chamber and allowed to settle into the Aerosizer.\nAerodynamic diameter was analyzed using the API AeroDisperser and Aerosizer (TSI, Inc., St. Paul, Minn.) following standard procedures (Alkermes SOP #MS-034-005). Sample powder was introduced and dispersed in the AeroDisperser and then accelerated through a nozzle in the Aerosizer. A direct time-of-flight measurement was made for each particle in the Aerosizer, which was dependent on the particle's inertia. The time-of-flight distribution was then translated into a mass-based aerodynamic particle size distribution using a force balance based on Stokes law."}, "[3]": {"experiment": "Geometric diameter emitted from breath-activated inhaler (IHA/HELOS)", "type": "physicochemical", "details": "5 mg in size #2 capsule", "description": "To further evaluate the ability of the three powders to emit from a simple, breath-activated inhaler, Applicants placed 5 mg of each powder in a size #2 methyl cellulose capsule and inserted the capsule into a breath-activated inhaler. It will be appreciated by those skilled in the art that the receptacle into which the powders are placed will depend on the type of inhaler selected. […] The same results were obtained from measurements of the aerodynamic diameter, with spray-dried particles emitting with very similar aerodynamic diameters as compared to the primary particles.\nThe geometric diameter emitted from the breath-activated inhaler was measured using an IHA accessory (Sympatec) with the HELOS laser diffractometer. The IHA adapter positions the DPI in front of the measuring zone and allows air to be pulled through the DPI which aerosolizes the powder. Vacuum was drawn at 30 L/min to disperse powder from the AIR inhaler and the geometric diameter was measured by Fraunhofer diffraction."}, "[4]": {"system": "rat model of Parkinson's disease", "experiment": "Rotation test", "type": "in vivo"}, "[5]": {"system": "rat model of Parkinson's disease", "experiment": "Placing task", "type": "in vivo"}, "[6]": {"system": "rat model of Parkinson's disease", "experiment": "Akinesia task", "type": "in vivo"}, "[7]": {"system": "rat model of Parkinson's disease", "experiment": "Bracing task", "type": "in vivo"}, "[8]": {"details": "oral gavage, 8 mg in saline with 1% methylcellulose, carbidopa pre-treatment, 0-30 min"}}, "note": "Read-outs that look alike come from different tables or passages of the source."}
{"compound": "albuterol sulfate [Micronized Alb. Sulfate (1)]", "values": [{"measurement": "primary particle size as measured by RODOS", "setting": "[1]", "value": "~2", "unit": "microns"}, {"measurement": "Dg (geometric diameter)", "setting": "[1]; RODOS/HELOS", "value": 2.5, "unit": "μm"}, {"measurement": "state of powder exiting the RODOS orifice", "setting": "[1]; pressures below 2 bars", "value": "aggregated state"}, {"measurement": "ρ (tap density)", "setting": "Tap density", "value": 0.26, "unit": "g/cc"}, {"measurement": "emitted aerodynamic diameter compared to primary aerodynamic diameter", "setting": "[2]", "value": "much larger"}, {"measurement": "geometric diameter emitted from the inhaler", "setting": "[3]", "value": "greater than 30 microns"}]}
{"compound": "N[C@@H](Cc1ccc(O)c(O)c1)C(=O)O", "note": "[L-Dopa]", "values": [{"measurement": "rotation behavior without pre-treatment with carbidopa", "setting": "[4]; data not shown", "value": "virtually eliminated"}, {"measurement": "time of peak rotation levels", "setting": "[4]; oral, 30 mg/kg", "value": "approximately 30 minutes"}, {"measurement": "rotations during the first 10-15 minutes", "setting": "[4]; oral, 30 mg/kg, carbidopa pre-treatment", "value": "< 5", "unit": "rotations/animal"}, {"measurement": "rotations relative to oral delivery within the first 10-15 minutes", "setting": "[4]; pulmonary, 2 mg total", "value": "greater than 3 times"}, {"measurement": "time of peak rotations", "setting": "[4]; pulmonary, 2 mg total", "value": "25 to 30", "unit": "min"}, {"measurement": "difference in drug required to produce equivalent efficacy, oral versus pulmonary", "setting": "[5]; doses normalized by body weight", "value": "~10", "unit": "fold"}, {"measurement": "time of maximal effects", "setting": "[5]; oral, 20 mg/kg", "value": 60, "unit": "min"}, {"measurement": "time of peak performance", "setting": "[5]; oral, 30 mg/kg", "value": "1 to 2", "unit": "h"}, {"measurement": "time to improved performance with the impaired limb", "setting": "[5]; oral, 30 mg/kg", "value": "≤ 30", "unit": "min"}, {"measurement": "lowest dose with significant improvements", "setting": "[5]; pulmonary", "value": 0.5, "unit": "mg"}, {"measurement": "pulmonary dose with recovery comparable to 30 mg/kg given orally", "setting": "[5]; pulmonary", "value": 1, "unit": "mg"}, {"measurement": "time of peak benefits", "setting": "[5]; pulmonary, highest dose tested", "value": "15 to 30", "unit": "min"}, {"measurement": "time to significant improvements", "setting": "[5]; pulmonary, highest dose tested", "value": "≤ 10", "unit": "min"}, {"measurement": "time of maximal effects", "setting": "[6]; oral, 30 mg/kg", "value": "≤ 60", "unit": "min"}, {"measurement": "time to improved performance", "setting": "[6]; oral, 30 mg/kg", "value": "≤ 30", "unit": "min"}, {"measurement": "lowest dose with statistically significant (p<0.05) improvements", "setting": "[6]; pulmonary", "value": 1.0, "unit": "mg"}, {"measurement": "time of peak benefits", "setting": "[6]; pulmonary", "value": "15 to 30", "unit": "min"}, {"measurement": "time to significant improvements", "setting": "[6]; pulmonary", "value": "≤ 10", "unit": "min"}, {"measurement": "effect on performance", "setting": "[7]; oral, 20 mg/kg", "value": "slightly improved performance"}, {"measurement": "time of maximal effects", "setting": "[7]; oral, 30 mg/kg", "value": "≤ 60", "unit": "min"}, {"measurement": "time to improved performance", "setting": "[7]; oral, 30 mg/kg", "value": "≤ 30", "unit": "min"}, {"measurement": "lowest dose with statistically significant improvements", "setting": "[7]; pulmonary", "value": 0.5, "unit": "mg"}, {"measurement": "time of peak benefits", "setting": "[7]; pulmonary", "value": "15 to 30", "unit": "min"}, {"measurement": "time to significant improvements", "setting": "[7]; pulmonary", "value": "≤ 10", "unit": "min"}, {"measurement": "increase in blood levels of L-Dopa over time", "setting": "[8]", "value": "modest"}]}
{"compound": "CC(C(=O)O)c1cccc(C(=O)c2ccccc2)c1", "note": "(stereo not drawn) [Ketoprofen]", "values": [{"measurement": "time required to achieve maximum plasma concentration", "setting": "insufflated rats", "value": "< 15", "unit": "min"}, {"measurement": "time required to achieve maximum plasma concentration", "setting": "orally dosed rats", "value": "15 to 60", "unit": "min"}, {"measurement": "time required to achieve maximum plasma concentration", "setting": "pulmonary delivery route", "value": "≤ 10", "unit": "min"}, {"measurement": "plasma levels of ketoprofen, insufflated versus oral group", "setting": "t=5 min to t=60 min", "value": "significantly higher"}, {"measurement": "plasma levels of ketoprofen, insufflated versus oral group", "setting": "t=120 min and t=240 min", "value": "statistically equivalent"}]}
